Source: patent publication US11542475B2, “3D microphysiologic system” (Northwestern University, priority 2014, dated 2023)

What was measured:
IL8 = assay: ELISA of fallopian culture medium: IL8; type: cell-based, human; conditions: 10 nM E2, 7 days, conditioned medium, n=7
Protocol: Tissues were micro-dissected in alpha-MEM (Gibco, Carlsbad, Calif.) with 1% penicillin-streptomycin (Invitrogen, Carlsbad, Calif.). Individual fimbriae were separated into ˜50 mm^3 pieces. A portion of the tissue was fixed in 2% paraformaldehyde for use as an uncultured control. For optimization studies, fimbriae were cultured without matrix, encapsulated in 0.5% alginate, or encapsulated in 0.5% alginate with 1 mg/ml collagen and 0.1% fibronectin, as previously described for murine cultures (King et al. J Vis Exp. 2011.; herein incorporated by reference in its entirety). For subsequent treatments, 0.5% alginate encapsulated fimbriae were randomly assigned to treatment groups, with at least five fimbriae per condition, per patient, in a 24-well plate containing alpha-MEM and 1% penicillin-streptomycin. […] Prior to fixation, fimbriae were labeled with 10 μM bromodeoxyurine (BrdU, Sigma-Aldrich) for 24 hours to denote proliferating cells. […]
IL8, VEGF-A, and FGF2 were detected in fallopian culture medium by enzyme-linked immunosorbent assay for human IL8 (EMD Millipore, Billerica, Mass., USA), VEGF-A (RayBiotech, GA, USA), or FGF2 (Abcam) respectively using the manufacturers' protocols. […] Results were normalized to total protein content as determined by western blotting and Ponceau staining to account for difference in tissue size between treatment groups. […]

[1] = test system: primary human endocervical cells; assay: Immunohistochemistry of 3D endocervical cultures (PR, ER, Ki67); type: cell-based; conditions: day-14 (E2), day-28 (E2+P4)
Protocol: To represent a 28-day human menstrual cycle in vitro, a stepwise hormone regimen was added to the cells. For the first 7 days, cells were incubated with 0.1 nM E2, followed by 1 nM E2 for the next 7 days (FIG. 45). Then cells were treated for 1 nM E2 and 10 nM P4 for an additional 7 days, followed by 0.1 nM E2 and 50 nM P4 for 5 days. Then media without hormones were added for the final 2 days for a total culture period of 28 days. Media was collected every 48 h and stored at −20° C. For PR antagonist studies, cells were treated with 100 nM RU486 (Sigma, MO) which was added on day-21. To visualize the cells on scaffold, cells were infected with the adenovirus containing pAD-eGFP-RLC (Cell Imaging Core, Northwestern University) (Khuon et al. Journal of cell science 123:431-440.; herein incorporated by reference in its entirety) by adding 2 μl of amplified virus to 3.5 ml of media per […] for 24 h.
Scaffolds were washed twice in PBS, covered with histogel (Fisher Scientific, MA) and fixed in 4% paraformaldehyde for 5 h. Processing and hematoxylin and eosin (H&E) staining was performed at the Northwestern University Center for Reproductive Sciences Histology Core (Chicago, Ill.). […] HRP activity was detected using 3,3′-Diaminobenzidine (DAB) in 1:50 dilution (Dako, CA) as substrate for 30-60 sec and then counterstained with hematoxylin. […]

SMILES: C[C@]12CC[C@@H]3c4ccc(O)cc4CC[C@H]3[C@@H]1CC[C@@H]2O [E2, estradiol]
- IL8 increase compared to vehicle control (IL8): 22%±13%
- Ki67 staining compared to control [1]: increased staining
